B3: Thermotoga maritima Mre11 (residues L7M-385) (enzyme, UniProt Q9X1X0 7-385, looked up)
chain: MKILHTSDWHLGVTSWTSSRPVDRREELKKALDKVVEEAEKREVDLILLTGDLLHSRNNPSVVALHDLLDYLKRMMRTAPVVVLPGNHDWKGLKLFGNFVTSISSDITFVMSFEPVDVEAKRGQKVRILPFPYPDESEALRKNEGDFRFFLESRLNKLYEEALKKEDFAIFMGHFTVEGLAGYAGIEQGREIIINRALIPSVVDYAALGHIHSFREIQKQPLTIYPGSLIRIDFGEEADEKGAVFVELKRGEPPRYERIDASPLPLKTLYYKKIDTSALKSIRDFCRNFPGYVRVVYEEDSGILPDLMGEIDNLVKIERKSRREIEEVLRESPEEFKEELDKLDYFELFKEYLKKREENHEKLLKILDELLDEVKKSEA

In series [1] the target is TmMre11:Rad50^NBD (TmMR^NBD catalytic head) (Thermotoga maritima, UniProt Q9X1X1, N64C/DEL191-685/I760C). Nature of the series: ATP-dependent BMOE crosslinking of Rad50 NBDs, SDS PAGE. The series is classed as binding.
TmMre11:Rad50^NBD (TmMR^NBD catalytic head) (Thermotoga maritima, UniProt Q9X1X1, N64C/DEL191-685/I760C), sequence (Q9X1X1 1-190 N64C, one chain of several): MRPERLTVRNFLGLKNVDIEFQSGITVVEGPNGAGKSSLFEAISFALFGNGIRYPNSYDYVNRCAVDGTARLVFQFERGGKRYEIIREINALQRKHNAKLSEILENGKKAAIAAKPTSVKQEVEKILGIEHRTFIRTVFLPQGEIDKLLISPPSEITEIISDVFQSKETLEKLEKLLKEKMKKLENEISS
TmMre11:Rad50^NBD (TmMR^NBD catalytic head) (Thermotoga maritima, UniProt Q9X1X1, N64C/DEL191-685/I760C), sequence (Q9X1X1 686-852 I760C, one chain of several): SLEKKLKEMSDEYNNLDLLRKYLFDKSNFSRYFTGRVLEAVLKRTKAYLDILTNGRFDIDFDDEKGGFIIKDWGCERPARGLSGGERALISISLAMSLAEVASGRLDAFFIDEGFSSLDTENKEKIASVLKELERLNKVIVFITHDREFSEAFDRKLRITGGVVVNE
For series [2], the target named is TmMre11:Rad50^NBD (TmMR^NBD catalytic head) (Thermotoga maritima, UniProt Q9X1X1, DEL191-685/D804C/H830C, form not given). Nature of the series: ATP-induced disulfide bond formation between Rad50 NBDs. In kind it is binding. The note with it: Cu2+.
TmMre11:Rad50^NBD (TmMR^NBD catalytic head) (Thermotoga maritima, UniProt Q9X1X1, DEL191-685/D804C/H830C, form not given), sequence (Q9X1X0 7-385 L7M/F291S, form open, one chain of several, further chain): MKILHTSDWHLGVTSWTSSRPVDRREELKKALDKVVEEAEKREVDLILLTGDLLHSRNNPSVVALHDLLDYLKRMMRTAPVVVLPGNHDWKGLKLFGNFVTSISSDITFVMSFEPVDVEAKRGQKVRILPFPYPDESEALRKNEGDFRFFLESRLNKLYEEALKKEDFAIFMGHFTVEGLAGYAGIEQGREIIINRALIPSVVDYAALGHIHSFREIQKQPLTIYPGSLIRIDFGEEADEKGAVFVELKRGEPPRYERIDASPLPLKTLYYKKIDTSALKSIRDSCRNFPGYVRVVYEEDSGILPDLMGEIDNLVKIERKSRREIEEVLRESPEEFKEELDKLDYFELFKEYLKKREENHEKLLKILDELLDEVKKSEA
TmMre11:Rad50^NBD (TmMR^NBD catalytic head) (Thermotoga maritima, UniProt Q9X1X1, DEL191-685/D804C/H830C, form not given), sequence (Q9X1X1 686-852 D804C/H830C, form open, one chain of several): as the sequence (Q9X1X1 686-852 I760C, one chain of several) above, with C75I, D119C, H145C counted along it
For series [3], the target named is TmMre11:Rad50^NBD (TmMR^NBD catalytic head) (Thermotoga maritima, UniProt Q9X1X1, DEL191-685/D804C/H830C). Described as above. In kind it is binding. The note with it: Cu2+.
TmMre11:Rad50^NBD (TmMR^NBD catalytic head) (Thermotoga maritima, UniProt Q9X1X1, DEL191-685/D804C/H830C), sequence (Q9X1X1 686-852 D804C/H830C, one chain of several): as the sequence (Q9X1X1 686-852 I760C, one chain of several) above, with C75I, D119C, H145C counted along it
Series [4] has as its target T1, TmMre11:Rad50^NBD (TmMR^NBD catalytic head) (Thermotoga maritima, UniProt Q9X1X1, DEL191-685). Nature of the series: ATPase activity. In kind it is biochemical.
Series [5] concerns the target TmMre11:Rad50^NBD (TmMR^NBD catalytic head) (Thermotoga maritima, UniProt Q9X1X1, DEL191-685, form not given). As to the kind of experiment: reduced BMOE crosslinking of Mre11 dimer, SDS PAGE. In kind it is binding. The note with it: nucleotide binds Rad50; read-out at Mre11 dimer interface.
Series [6] deals with T1, TmMre11:Rad50^NBD (TmMR^NBD catalytic head). Nature of the series: SAXS, compaction of catalytic head. The series is classed as binding. The note with it: 50 mM Tris pH 7.7, 100 mM NaCl, 5 mM MnCl2, 10 mM MgCl2.
Series [7] has the same target. Nature of the series: SPR and EMSA, nucleotide-stimulated DNA binding. The series is classed as biochemical. The note with it: dsDNA 50mer, hairpin DNA.
Series [8] addresses B3. Nature of the series: crystal structure.
The series “co-purification” deals with the molecule itself. As to the kind of experiment: co-purification.
The series “crystal structure” deals with the molecule itself. Nature of the series: crystal structure.

Regarding `Nc1ncnc2c1ncn2[C@@H]1O[C@H](COP(=O)(O)OP(=O)(O)OP(=O)(O)O)[C@@H](O)[C@H]1O` [ATP], in [1], the “ATP-dependent BMOE crosslinking of Rad50 NBDs, SDS PAGE” value is on record as “crosslink the two NBDs in the presence of ATP, but not in the absence of ATP”. For the same molecule, the “ATP-induced disulfide bond formation between Rad50 NBDs” value was “we can now efficiently crosslink the NBDs by disulfide bond formation” in [2]; “ATP induced formation of a disulfide bond between D804C and H830C” in series [3]. In addition, the ATPase activity result in series [4] was “Both proteins form a stoichiometric complex with ATPase as well as DNA binding activity”. Moreover, in series [5], the “reduced BMOE crosslinking of Mre11 dimer, SDS PAGE” value was “ATP, AMPPNP and ATPγS reduced the ability of BMOE to crosslink Mre11 S110C dimers”.
`Nc1ncnc2c1ncn2[C@@H]1O[C@H](COP(=O)(O)OP(=O)(O)OP(O)(O)=S)[C@@H](O)[C@H]1O` [ATPγS]: in [6], the “SAXS, compaction of catalytic head (radius of gyration)” value was “Adding ATPγS indeed resulted in a substantial decrease of the radius of gyration (Rg)”.
Regarding `Nc1ncnc2c1ncn2[C@@H]1O[C@H](COP(=O)(O)OP(=O)(O)NP(=O)(O)O)[C@@H](O)[C@H]1O` [AMPPNP], the “SPR and EMSA, nucleotide-stimulated DNA binding” value in series [7] is “SPR showed a strong effect of AMPPNP on dsDNA and hairpin DNA binding by TmMre11:Rad50^NBD”.

B1: Thermotoga maritima Rad50^NBD (residues 1-190 and 686-852 joined by the linker GGAGGAGG) (domain or fragment)
chain: MRPERLTVRNFLGLKNVDIEFQSGITVVEGPNGAGKSSLFEAISFALFGNGIRYPNSYDYVNRNAVDGTARLVFQFERGGKRYEIIREINALQRKHNAKLSEILENGKKAAIAAKPTSVKQEVEKILGIEHRTFIRTVFLPQGEIDKLLISPPSEITEIISDVFQSKETLEKLEKLLKEKMKKLENEISSGGAGGAGGSLEKKLKEMSDEYNNLDLLRKYLFDKSNFSRYFTGRVLEAVLKRTKAYLDILTNGRFDIDFDDEKGGFIIKDWGIERPARGLSGGERALISISLAMSLAEVASGRLDAFFIDEGFSSLDTENKEKIASVLKELERLNKVIVFITHDREFSEAFDRKLRITGGVVVNE
On to B1, for which the binding result in series [8] is recorded as “binds”.

B2: Thermotoga maritima Mre11 S110C (enzyme, UniProt Q9X1X0 7-385, looked up)
chain: MKILHTSDWHLGVTSWTSSRPVDRREELKKALDKVVEEAEKREVDLILLTGDLLHSRNNPSVVALHDLLDYLKRMMRTAPVVVLPGNHDWKGLKLFGNFVTSICSDITFVMSFEPVDVEAKRGQKVRILPFPYPDESEALRKNEGDFRFFLESRLNKLYEEALKKEDFAIFMGHFTVEGLAGYAGIEQGREIIINRALIPSVVDYAALGHIHSFREIQKQPLTIYPGSLIRIDFGEEADEKGAVFVELKRGEPPRYERIDASPLPLKTLYYKKIDTSALKSIRDFCRNFPGYVRVVYEEDSGILPDLMGEIDNLVKIERKSRREIEEVLRESPEEFKEELDKLDYFELFKEYLKKREENHEKLLKILDELLDEVKKSEA
With B2, the binding result in “co-purification” is “binds”.
As to B3, the “stoichiometry N” value in the series “crystal structure” turned out to be 2.

The stoichiometry N is a count of units in the complex or per binding partner.
